Test results published in ChEMBL document CHEMBL1127185, “4-Aryltetrahydropyridines as selective ligands” (Bioorg Med Chem Lett, 1993).

Columns and labels:
D(2) dopamine receptor = D(2) dopamine receptor (Rattus norvegicus, UniProt P61169); assay: Binding affinity against Dopamine receptor D2 in rat striatum using [3H]spiperone; assay type: tissue-based
Mus musculus = assay: Tested for effective dose causing inhibition of mouse locomotor activity by intraperitoneal administration; assay type: functional; details: ip
Rattus norvegicus [1] = assay: Tested for the inhibition of dopamine firing at 2.5 mg/kg by intraperitoneal administration; assay type: functional; details: ip
Rattus norvegicus [2] = assay: Tested for the inhibition of dopamine synthesis at 10 mg/kg by intraperitoneal administration; assay type: functional; details: ip
Rattus norvegicus [3] = assay: Tested for the inhibition of dopamine firing at 2.5 mg/Kg by intraperitoneal administration; assay type: functional; details: ip
Rattus norvegicus [4] = assay: Tested for the inhibition of dopamine synthesis at 10 mg//Kg by intraperitoneal administration; assay type: functional

Sequence of D(2) dopamine receptor (P61169 whole entry): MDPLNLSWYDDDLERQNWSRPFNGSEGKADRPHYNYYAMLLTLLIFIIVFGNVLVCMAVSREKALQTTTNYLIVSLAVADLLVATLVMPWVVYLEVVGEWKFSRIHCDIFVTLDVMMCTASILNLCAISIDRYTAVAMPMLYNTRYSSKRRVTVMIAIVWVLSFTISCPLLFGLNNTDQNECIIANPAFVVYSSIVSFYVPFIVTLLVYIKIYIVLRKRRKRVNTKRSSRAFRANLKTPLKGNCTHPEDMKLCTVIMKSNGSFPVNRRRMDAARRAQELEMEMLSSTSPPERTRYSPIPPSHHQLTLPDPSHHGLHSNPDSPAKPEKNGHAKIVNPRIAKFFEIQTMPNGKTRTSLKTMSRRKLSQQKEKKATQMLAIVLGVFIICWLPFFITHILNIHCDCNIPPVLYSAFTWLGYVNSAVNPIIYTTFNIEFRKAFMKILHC

For `C1=C(c2c[nH]c3ccccc23)CCN(CCCCc2ccncc2)C1`, the Ki (D(2) dopamine receptor) was 0.286 µM.

Compound `COc1ccc(C2=CCN(CCCCc3ccncc3)CC2)cc1` has a Ki (D(2) dopamine receptor) of 1.64 µM, an ED50 (Mus musculus) of 7.4 mg/kg and an inhibition in vivo at 2.5 mg/kg (Rattus norvegicus [1]) of 6%. It also gave an inhibition in vivo at 10 mg/kg (Rattus norvegicus [2]) of 18%.

In the case of `Fc1ccc(C2=CCN(CCCCc3ccncc3)CC2)cc1`, the Ki (D(2) dopamine receptor) is reported as 5.31 µM, the ED50 (Mus musculus) is reported as 3.8 mg/kg and the inhibition in vivo at 2.5 mg/kg (Rattus norvegicus [1]) is reported as 9%. It also gave an inhibition in vivo at 10 mg/kg (Rattus norvegicus [2]) of 0%.

`Cc1ccc(C2=CCN(CCCCc3ccncc3)CC2)cc1` was tested, and the Ki (D(2) dopamine receptor) was 0.957 µM.

`C1=C(c2ccc3ccccc3c2)CCN(CCCCc2ccncc2)C1` was tested, and the Ki (D(2) dopamine receptor) was 0.66 µM.

In the case of `C1=C(c2ccccn2)CCN(CCCCc2ccncc2)C1`, the Ki (D(2) dopamine receptor) is reported as 0.322 µM.

In the case of `C1=C(c2ccccc2)CCN(CCCCc2ccncc2)C1`, the Ki (D(2) dopamine receptor) is reported as 0.0691 µM, the ED50 (Mus musculus) is reported as 0.6 mg/kg and the inhibition in vivo at 2.5 mg/kg (Rattus norvegicus [3]) is reported as 80%. The Inhibition (Rattus norvegicus [4]) was 87%.

In the case of `Clc1ccc(C2=CCN(CCCCc3ccncc3)CC2)cc1`, the Ki (D(2) dopamine receptor) is reported as 0.456 µM.

For `C1=C(c2cccs2)CCN(CCCCc2ccncc2)C1`, the Ki (D(2) dopamine receptor) was 0.496 µM.
